Laboratory results as given in patent US10011609B2, “Heterocyclic compounds” (CADILA HEALTHCARE LIMITED, priority 2013, dated 2018).
Structures can show the parent of a compound that is named as a salt.

Target: T1, GPR40 (Homo sapiens, UniProt O14842)
T1 construct: host or cells: HEK293 (ChemiBrite cell line)
Test: Promoter-luciferase assay to measure GPR40 activation (HEK293 cells stably transfected with GPR40 cDNA)
Type: cell-based
Conditions: EC50 in Luciferase assay, HEK293 cells stably transfected with GPR40, 5xSRE-luciferase
Method: GPR40 activation was measured in HEK293 cells stably transfected with GPR40 cDNA (ChemiBrite cell lines from Millipore, US). These cells were transiently transfected with a pGL2 (Promega Inc.) plasmid having a 5×SRE sequence, cloned 5′ of a luciferase gene along with a β-galactosidase plasmid as normalizing control. Briefly, 35000 cells/well were seeded in a 96 well plates. After overnight incubation at 37° C., the cells were washed with PBS and transfected with the 5×-SRE-Luciferase plasmid and the β-galactosidase plasmid. 6 h post transfection, media was removed and replaced with fresh media with different concentration of drugs and incubated for 16 more hours. The cells were then lysed in 50 μL of Glo-Lysis buffer (Promega) for 30 min at room temperature. The cells were then centrifuged and lysates were collected. Luciferase activity was measured by adding 100 μL of luciferase substrate (Promega) in 20 μL of lysate and measuring the luminescence in luminometer. The […] activity was also measured by adding 20 μL of lysates with 20 μL of β-galactosidase buffer (Promega) and monitoring the absorbance at 415 nm. Luciferase values were divided by β-galactosidase values to normalize transfection efficiency (Table 2)

T1 sequence (O14842 whole entry, species assumed): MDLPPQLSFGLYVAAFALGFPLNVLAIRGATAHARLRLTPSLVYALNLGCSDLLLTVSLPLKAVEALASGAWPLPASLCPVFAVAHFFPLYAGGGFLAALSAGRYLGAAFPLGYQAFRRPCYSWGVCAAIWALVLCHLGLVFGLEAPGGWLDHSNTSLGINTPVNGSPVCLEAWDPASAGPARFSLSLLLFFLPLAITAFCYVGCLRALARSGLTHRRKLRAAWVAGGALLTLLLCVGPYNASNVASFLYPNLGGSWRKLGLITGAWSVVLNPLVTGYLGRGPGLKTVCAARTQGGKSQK

Row | Structure (SMILES) | EC50
1 | CC#C[C@@H](CC(=O)[O][Ca][O]C(=O)C[C@H](C#CC)c1ccc(OCc2cccc(CN3CCc4ccccc4C3)c2)cc1)c1ccc(OCc2cccc(CN3CCc4ccccc4C3)c2)cc1 [Compound 20, Calcium (S)-3-(4-((3-((3,4-dihydroisoquinolin-2(1H)-yl)methyl)benzyl)oxy)phenyl)hex-4-ynoate] | 2.7 nM
2 | CC#C[C@@H](CC(=O)[O][Ca][O]C(=O)C[C@H](C#CC)c1ccc(OCc2cccc(CN3CCc4sc(Cl)cc4C3)c2)cc1)c1ccc(OCc2cccc(CN3CCc4sc(Cl)cc4C3)c2)cc1 [Compound 39, Calcium (S)-3-(4-((3-((2-chloro-6,7-dihydrothieno[3,2-c]pyridin-5(4H)-yl)methyl)benzyl)oxy)phenyl)hex-4-ynoate] | 1.7 nM

Same assay, conditions: HEK293 cells stably transfected with GPR40, 5xSRE-luciferase; read-out: EC50 in Luciferase assay

Row | Structure (SMILES) | EC50
3 | CC#C[C@@H](CC(=O)O)c1ccc(OCc2cccc(CN3CCc4c(ccn4C(=O)OC(C)(C)C)C3)c2)cc1 [Compound 8, (S)-3-(4-((3-((1-(tert-butoxycarbonyl)-6,7-dihydro-1H-pyrrolo[3,2-c]pyridin-5(4H)-yl)methyl)benzyl)oxy)phenyl)hex-4-ynoic acid] | 11.8 nM
4 | CC#C[C@@H](CC(=O)O)c1ccc(OCc2cccc(CN3CCc4ccccc4C3)c2)cc1 [Compound 15, (S)-3-(4-((3-((3,4-dihydroisoquinolin-2(1H)-yl)methyl)benzyl)oxy)phenyl)hex-4-ynoic acid] | 4.6 nM
5 | CC#C[C@@H](CC(=O)O)c1ccc(OCc2cccc(CN3CC4CC(C3)O4)c2)cc1 [Compound 23, (3S)-3-(4-((3-(6-Oxa-3-azabicyclo[3.1.1]heptan-3-ylmethyl)benzyl)oxy)phenyl)hex-4-ynoic acid] | 5.3 nM
6 | CC#C[C@@H](CC(=O)O)c1ccc(OCc2cccc(CN3CCc4oc(C5CC5)nc4C3)c2)cc1 [Compound 26, (S)-3-(4-((3-((2-Cyclopropyl-6,7-dihydrooxazolo[4,5-c]pyridin-5(4H)-yl)methyl)benzyl)oxy)phenyl)hex-4-ynoic acid] | 4.1 nM
7 | CC#C[C@@H](CC(=O)O)c1ccc(OCc2cccc(CN3CCc4sc(C(N)=O)cc4C3)c2)cc1 [Compound 40, (S)-3-(4-((3-((2-carbamoyl-6,7-dihydrothieno[3,2-c]pyridin-5(4H)-yl)methyl)benzyl)oxy)phenyl)hex-4-ynoic acid] | 8 nM
8 | CC#C[C@@H](CC(=O)O)c1ccc(OCc2cccc(CN3CCc4sc(C#N)cc4C3)c2)cc1 [Compound 43, (S)-3-(4-((3-((2-cyano-6,7-dihydrothieno[3,2-c]pyridin-5(4H)-yl)methyl)benzyl)oxy)phenyl)hex-4-ynoic acid] | 7.3 nM
9 | CC#C[C@@H](CC(=O)O)c1ccc(OCc2cccc(CN3CCc4sc(C(=O)N(C)C)cc4C3)c2)cc1 [Compound 47, (S)-3-(4-((3-((2-(dimethylcarbamoyl)-6,7-dihydrothieno[3,2-c]pyridin-5(4H)-yl)methyl)benzyl)oxy)phenyl)hex-4-ynoic acid] | 9 nM
10 | CC#CC(CC(=O)O)c1ccc(OCc2cccc(CN3CCc4sc(C)cc4C3)c2)cc1 (stereo not drawn) [Compound 58, 3-(4-((3-((2-Methyl-6,7-dihydrothieno[3,2-c]pyridin-5(4H)-yl)methyl)benzyl)oxy)phenyl)hex-4-ynoic acid] | 3.7 nM
11 | CC#C[C@@H](CC(=O)O)c1ccc(OCc2cccc(CN3CCc4sc(C(=O)NC5CC5)cc4C3)c2)cc1 [Compound 61, (S)-3-(4-((3-((2-(cyclopropylcarbamoyl)-6,7-dihydrothieno[3,2-c]pyridin-5(4H)-yl)methyl)benzyl)oxy)phenyl)hex-4-ynoic acid] | 12.6 nM
12 | CC#C[C@@H](CC(=O)O)c1ccc(OCc2cccc(CN3CCc4sc(NC(C)=O)cc4C3)c2)cc1 [Compound 63, (S)-3-(4-((3-((2-Aacetamido-6,7-dihydrothieno[3,2-c]pyridin-5(4H)-yl)methyl)benzyl)oxy)phenyl)hex-4-ynoic acid] | 4.4 nM
13 | CC#C[C@@H](CC(=O)O)c1ccc(OCc2cccc(CN3CCc4sc([N+](=O)[O-])cc4C3)c2)cc1 [Compound 65, (S)-3-(4-((3-((2-Nitro-6,7-dihydrothieno[3,2-c]pyridin-5(4H)-yl)methyl)benzyl)oxy)phenyl)hex-4-ynoic acid] | 1.6 nM

Second part, the molecule after the results:

Row | EC50 | Structure (SMILES)
14 | 5.6 nM | CC#C[C@@H](CC(=O)O)c1ccc(OCc2cccc(CN3Cc4ccccc4C3)c2)cc1 [Compound 12, (S)-3-(4-((3-(isoindolin-2-ylmethyl)benzyl)oxy)phenyl)hex-4-ynoic acid trifluoroacetic acid]
15 | 0.8 nM | CC#C[C@@H](CC(=O)O)c1ccc(OCc2cccc(CN3CCCc4ccccc43)c2)cc1 [Compound 13, (S)-3-(4-((3-((3,4-dihydroquinolin-1(2H)-yl)methyl)benzyl)oxy)phenyl)hex-4-ynoic acid]
16 | 8.8 nM | CC#C[C@@H](CC(=O)O)c1ccc(OCc2cccc(CN3CCc4sc(C(F)F)cc4C3)c2)cc1 [Compound 18, (S)-3-(4-((3-((2-(Difluoromethyl)-6,7-dihydrothieno[3,2-c]pyridin-5(4H)-yl)methyl)benzyl)oxy)phenyl)hex-4-ynoic acid]
17 | 2.8 nM | CC#C[C@@H](CC(=O)O)c1ccc(OCc2cccc(CN3CCc4ncncc4C3)c2)cc1 [Compound 21, (S)-3-(4-((3-((7,8-Dihydropyrido[4,3-d]pyrimidin-6(5H)-yl)methyl)benzyl)oxy)phenyl)hex-4-ynoic acid]
18 | 0.7 nM | CC#C[C@@H](CC(=O)O)c1ccc(OCc2cccc(CN3CCc4ccccc43)c2)cc1 [Compound 24, (S)-3-(4-((3-(Indolin-1-ylmethyl)benzyl)oxy)phenyl)hex-4-ynoic acid]
19 | 4.5 nM | CC#C[C@@H](CC(=O)O)c1ccc(OCc2cccc(CN3CCCc4ccc(OC)cc43)c2)cc1 [Compound 30, 1-(3-((4-((S)-1-carboxypent-3-yn-2-yl)phenoxy)methyl)benzyl)-7-methoxy-1,2,3,4-tetrahydroquinolin-1-ium formate]
20 | 9.7 nM | CC#C[C@@H](CC(=O)O)c1ccc(OCc2cccc(CN3CCc4nc(Cl)sc4C3)c2)cc1 [Compound 31, (S)-3-(4-((3-((2-Chloro-6,7-dihydrothiazolo[5,4-c]pyridin-5(4H)-yl)methyl)benzyl)oxy)phenyl)hex-4-ynoic acid]
21 | 4.8 nM | CC#C[C@@H](CC(=O)O)c1ccc(OCc2cccc(CN3CCc4nc(Br)sc4C3)c2)cc1 [Compound 32, (S)-3-(4-((3-((2-Bromo-6,7-dihydrothiazolo[5,4-c]pyridin-5(4H)-yl)methyl)benzyl)oxy)phenyl)hex-4-ynoic acid]
22 | 204 nM | CC#C[C@@H](CC(=O)O)c1ccc(OCc2cccc(CN3CCc4sc(C(=O)O)cc4C3)c2)cc1 [Compound 35, (S)-5-(3-((4-(1-carboxypent-3-yn-2-yl)phenoxy)methyl)benzyl)-4,5,6,7-tetrahydrothieno[3,2-c]pyridine-2-carboxylic acid]
23 | 17.8 nM | CC#C[C@@H](CC(=O)O)c1ccc(OCc2cccc(CN3CCc4nc(N)sc4C3)c2)cc1 [Compound 38, (S)-3-(4-((3-((2-amino-6,7-dihydrothiazolo[5,4-c]pyridin-5(4H)-yl)methyl)benzyl)oxy)phenyl)hex-4-ynoic acid]
24 | 4.8 nM | CC#C[C@@H](CC(=O)O)c1ccc(OCc2cccc(CN3CCc4sc(C=O)cc4C3)c2)cc1 [Compound 44, (S)-3-(4-((3-((2-formyl-6,7-dihydrothieno[3,2-c]pyridin-5(4H)-yl)methyl)benzyl)oxy)phenyl)hex-4-ynoic acid]
25 | 6 nM | CC#C[C@@H](CC(=O)O)c1ccc(OCc2cccc(CN3CCc4sc(C(=O)NC)cc4C3)c2)cc1 [Compound 46, (S)-3-(4-((3-((2-(methylcarbamoyl)-6,7-dihydrothieno[3,2-c]pyridin-5(4H)-yl)methyl)benzyl)oxy)phenyl)hex-4-ynoic acid]
26 | 20.8 nM | CC#C[C@@H](CC(=O)O)c1ccc(OCc2cccc(CN3CCc4nc(OC)ncc4C3)c2)cc1 [Compound 50, (S)-3-(4-((3-((2-Methoxy-7,8-dihydropyrido[4,3-d]pyrimidin-6(5H)-yl)methyl)benzyl)oxy)phenyl)hex-4-ynoic acid]
27 | 3 nM | CC#C[C@@H](CC(=O)O)c1ccc(OCc2cccc(CN3CCCC3c3ccccc3)c2)cc1 (stereo partly drawn) [Compound 51, (3S)-3-(4-((3-((2-phenylpyrrolidin-1-yl)methyl)benzyl)oxy)phenyl)hex-4-ynoic acid]
28 | 56.5 nM | CC#C[C@H](CC(=O)O)c1ccc(OCc2cccc(CN3CCc4sc(C)cc4C3)c2)cc1 [Compound 55, (R)-3-(4-((3-((2-methyl-6,7-dihydrothieno[3,2-c]pyridin-5(4H)-yl)methyl)benzyl)oxy)phenyl)hex-4-ynoic acid]
29 | 3 nM | CC#C[C@@H](CC(=O)O)c1ccc(OCc2cccc(CN3CCc4sc(C(=O)N5CCCC5)cc4C3)c2)cc1 [Compound 62, (S)-3-(4-((3-((2-(pyrrolidine-1-carbonyl)-6,7-dihydrothieno[3,2-c]pyridin-5(4H)-yl)methyl)benzyl)oxy)phenyl)hex-4-ynoic acid]
30 | 11.9 nM | CC#C[C@@H](CC(=O)O)c1ccc(OCc2cccc(CN3CCc4ncccc4C3)c2)cc1 [Compound 68, (S)-3-(4-((3-((7,8-Dihydro-1,6-naphthyridin-6(5H)-yl)methyl)benzyl)oxy)phenyl) hex-4-ynoic acid]
